In patent US20030215465A1, “Use of conjugated acid derivatives” (priority 2002, published 2003):

Test system: influenza virus
Experiment: resistance inducing effect of CLA against viral airway infections in rats exposed intranasally to influenza virus
Type: in vivo
Settings: rats fed 1% CLA (FFA) for 5 weeks before intranasal influenza exposure; FIG. 1

## Conjugated Linoleic Acid [CLA]
  lungweight: increased
